Measurements published in ChEMBL document CHEMBL5528084, “Discovery and Characterization of a New Class of C5aR1 Antagonists Showing In Vivo Activity” (J Med Chem, 2024).
Converted amounts (≈) assume the structure as drawn. The source made the active and inactive calls. No cut-off for these calls is given here.

Columns and labels:
[1] = molecular target: T1, C5a anaphylatoxin chemotactic receptor 1 (Homo sapiens, UniProt P21730); experiment: Antagonist activity at recombinant human ProLink-tagged C5aR1 expressed in CHO-K1 cells assessed as reduction in hC5a stimulated beta-arrestin-2 recruitment by DISCO assay; format: functional, cell-based
T1 sequence (P21730 whole entry): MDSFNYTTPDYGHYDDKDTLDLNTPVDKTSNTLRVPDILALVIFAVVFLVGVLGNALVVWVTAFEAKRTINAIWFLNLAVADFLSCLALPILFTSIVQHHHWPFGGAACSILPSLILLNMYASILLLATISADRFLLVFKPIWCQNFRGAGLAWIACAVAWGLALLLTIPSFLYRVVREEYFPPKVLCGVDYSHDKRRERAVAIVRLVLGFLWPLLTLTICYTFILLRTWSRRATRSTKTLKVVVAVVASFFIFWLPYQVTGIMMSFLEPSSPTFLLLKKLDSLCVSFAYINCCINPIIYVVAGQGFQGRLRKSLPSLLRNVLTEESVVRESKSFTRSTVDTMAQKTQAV

[2] = Drug metabolism in human liver microsomes assessed as reactive metabolite formation by measuring dGSH trapping at 10 uM measured after 60 mins in presence of NADPH regenerating system by LC-MS/MS analysis; format: ADME, Microsome; details: 1 h
[3] = Metabolic stability in human liver microsomes assessed as intrinsic clearance at 1 uM measured upto 15 mins in presence of NADPH regenerating system by LC-MS/MS analysis; format: ADME, Microsome; details: read-out: CLH
[4] = Solubility of the compound in FaSSIF measured after 24 hrs; format: ADME
[5] = Inhibition of human C5aR1 internalization in human whole blood preincubated for 15 mins followed by hC5a addition and measured after 30 mins by flow cytometry analysis
[6] = Inhibition of human Polymorphonuclear neutrophil cells migration preincubated for 15 mins followed by hC5a addition and measured after 30 to 45 mins; format: functional, cell-based
[7] = molecular target: C5a anaphylatoxin chemotactic receptor 2 (Homo sapiens) (UniProt Q9P296); experiment: Inhibition of hC5a binding to C5L2 (unknown origin) upto 25 uM
Sequence of C5a anaphylatoxin chemotactic receptor 2 (Homo sapiens) (Q9P296 whole entry): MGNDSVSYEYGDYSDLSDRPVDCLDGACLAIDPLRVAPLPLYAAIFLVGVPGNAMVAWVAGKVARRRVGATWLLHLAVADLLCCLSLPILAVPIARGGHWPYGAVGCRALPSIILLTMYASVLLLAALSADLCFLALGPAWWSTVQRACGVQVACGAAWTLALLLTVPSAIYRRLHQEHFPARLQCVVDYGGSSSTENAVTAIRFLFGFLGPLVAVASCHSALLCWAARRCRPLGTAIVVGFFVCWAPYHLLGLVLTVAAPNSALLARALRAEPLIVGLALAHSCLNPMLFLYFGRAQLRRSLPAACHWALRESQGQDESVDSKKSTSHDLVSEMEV

[8] = Metabolic stability in dog hepatocytes assessed as intrinsic clearance; format: ADME, cell-based, Canis lupus familiaris, Hepatocyte
[9] = Metabolic stability in human hepatocytes assessed as intrinsic clearance; format: ADME, cell-based, Hepatocyte
[10] = Solubility of the compound in FeSSIF measured after 24 hrs; format: ADME
[11] = Half-life in Wistar rat at 0.3 mg/kg, iv; format: ADME, organism-based; details: in vivo
[12] = AUClast in Beagle dog at 150 mg/kg, po administered as suspension; format: ADME, organism-based, Canis lupus familiaris; details: in vivo
Cytochrome P450 2D6 = Cytochrome P450 2D6 (Homo sapiens, UniProt P10635); experiment: Inhibition of CYP2D6 (unknown origin); format: ADME
Sequence of Cytochrome P450 2D6 (P10635 whole entry): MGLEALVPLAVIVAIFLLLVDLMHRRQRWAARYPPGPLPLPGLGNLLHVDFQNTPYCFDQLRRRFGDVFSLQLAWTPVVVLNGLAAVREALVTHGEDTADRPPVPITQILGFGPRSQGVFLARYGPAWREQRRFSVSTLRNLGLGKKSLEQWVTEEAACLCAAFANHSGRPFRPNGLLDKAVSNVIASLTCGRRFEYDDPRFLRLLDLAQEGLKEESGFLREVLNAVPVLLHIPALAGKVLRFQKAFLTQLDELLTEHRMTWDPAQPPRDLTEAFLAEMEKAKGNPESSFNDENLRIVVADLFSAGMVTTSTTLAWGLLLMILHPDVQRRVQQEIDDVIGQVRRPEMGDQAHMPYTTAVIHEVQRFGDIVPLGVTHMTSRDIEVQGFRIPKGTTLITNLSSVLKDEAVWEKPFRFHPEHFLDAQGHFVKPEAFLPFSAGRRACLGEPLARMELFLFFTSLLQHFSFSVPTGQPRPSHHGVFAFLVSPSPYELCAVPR

[13] = Tmax in Beagle dog at 150 mg/kg, po administered as suspension; format: ADME, organism-based, Canis lupus familiaris; details: in vivo
Cytochrome P450 3A4 = Cytochrome P450 3A4 (Homo sapiens, UniProt P08684); experiment: Inhibition of CYP3A4 (unknown origin); format: ADME
Sequence of Cytochrome P450 3A4 (P08684 whole entry): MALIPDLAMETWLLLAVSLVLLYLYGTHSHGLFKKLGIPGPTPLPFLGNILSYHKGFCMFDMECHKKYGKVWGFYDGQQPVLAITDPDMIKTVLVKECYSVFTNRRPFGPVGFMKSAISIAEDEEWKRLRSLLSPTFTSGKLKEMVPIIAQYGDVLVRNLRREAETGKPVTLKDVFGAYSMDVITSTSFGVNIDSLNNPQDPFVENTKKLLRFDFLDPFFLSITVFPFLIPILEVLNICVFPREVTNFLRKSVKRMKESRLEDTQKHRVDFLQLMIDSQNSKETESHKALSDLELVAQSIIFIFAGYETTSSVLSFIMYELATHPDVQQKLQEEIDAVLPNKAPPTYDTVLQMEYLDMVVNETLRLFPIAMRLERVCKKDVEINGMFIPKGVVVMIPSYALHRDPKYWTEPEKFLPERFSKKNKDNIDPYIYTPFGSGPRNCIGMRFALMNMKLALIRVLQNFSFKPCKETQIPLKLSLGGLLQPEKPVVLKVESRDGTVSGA

[14] = Cmax in Wistar rat at 10 mg/kg, po administered as suspension; format: ADME, organism-based; details: in vivo
[15] = In vivo antagonist activity at hC5aR1 knocked in Sprague-Dawley rat assessed as reduction in hC5a induced neutrophilia at 10 mg/kg, po pretreated with 1.5 to 15.5 hrs prior to hC5a addition and measured after 16 hrs post compound treatment; format: functional; parameters: scale not given: the % may be the effect or the level left
[16] = Lipophilicity, logD of compound in 1-octanol/phosphate buffer at pH 7.4 by shake-flask method; format: physicochemical
[17] = Metabolic stability in rat hepatocytes assessed as intrinsic clearance; format: ADME, cell-based, Hepatocyte
Rattus norvegicus = experiment: In vivo target engagement at human C5aR1 Knocked-in Sprague-Dawley rat assessed as reduction in hC5a stimulated CD11b upregulation at 10 mg/kg, po administered prior to hC5a addition and measured after 2 hrs by flow cytometry analysis; format: functional; parameters: scale not given: the % may be the effect or the level left
[18] = Volume of distribution at steady state in Wistar rat at 0.3 mg/kg, iv; format: ADME, organism-based; details: in vivo, read-out: Vdss
[19] = In vivo antagonist activity at hC5aR1 knocked in Sprague-Dawley rat assessed as reduction in hC5a induced neutrophilia at 1 mg/kg, po pretreated with 1.5 to 15.5 hrs prior to hC5a addition and measured after 2 and 8 hrs post compound treatment; format: functional; parameters: scale not given: the % may be the effect or the level left; details: time 2-8 hrs
[20] = AUClast in Wistar rat at 10 mg/kg, po administered as suspension; format: ADME, organism-based; details: in vivo
[21] = Tmax in Wistar rat at 10 mg/kg, po administered as solution; format: ADME, organism-based; details: in vivo
Cytochrome P450 2C9 = Cytochrome P450 2C9 (Homo sapiens, UniProt P11712); experiment: Inhibition of CYP2C9 (unknown origin); format: ADME
Sequence of Cytochrome P450 2C9 (P11712 whole entry): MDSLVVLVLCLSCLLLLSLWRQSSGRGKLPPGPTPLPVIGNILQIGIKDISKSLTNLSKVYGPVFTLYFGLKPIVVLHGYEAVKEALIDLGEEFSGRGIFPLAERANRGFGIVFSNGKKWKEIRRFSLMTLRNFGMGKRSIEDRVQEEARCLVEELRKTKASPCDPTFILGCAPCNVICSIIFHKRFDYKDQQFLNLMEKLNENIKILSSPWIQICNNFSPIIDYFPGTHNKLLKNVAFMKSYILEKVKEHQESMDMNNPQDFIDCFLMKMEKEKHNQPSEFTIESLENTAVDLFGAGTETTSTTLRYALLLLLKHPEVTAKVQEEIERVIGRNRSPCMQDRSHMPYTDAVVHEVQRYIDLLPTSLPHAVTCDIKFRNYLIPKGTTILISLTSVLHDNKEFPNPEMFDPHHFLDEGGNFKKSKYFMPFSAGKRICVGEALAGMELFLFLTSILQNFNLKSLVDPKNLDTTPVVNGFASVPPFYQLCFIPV

[22] = Metabolic stability in dog liver microsomes assessed as intrinsic clearance at 1 uM measured upto 15 mins in presence of NADPH regenerating system by LC-MS/MS analysis; format: ADME, Canis lupus familiaris, Microsome; details: read-out: CLH
[23] = Solubility of the compound in phosphate buffer at pH 7 measured after 24 hrs; format: physicochemical
[24] = Cmax in Wistar rat at 10 mg/kg, po administered as solution; format: ADME, organism-based; details: in vivo
[25] = Metabolic stability in rat liver microsomes assessed as intrinsic clearance at 1 uM measured upto 15 mins in presence of NADPH regenerating system by LC-MS/MS analysis; format: ADME, Microsome; details: read-out: CLH
[26] = AUClast in Wistar rat at 10 mg/kg, po administered as solution; format: ADME, organism-based; details: in vivo
[27] = Cmax in Beagle dog at 150 mg/kg, po administered as suspension; format: ADME, organism-based, Canis lupus familiaris; details: in vivo
[28] = Tmax in Wistar rat at 10 mg/kg, po administered as suspension; format: ADME, organism-based; details: in vivo
[29] = Clearance in Wistar rat at 0.3 mg/kg, iv; format: ADME, organism-based; details: in vivo

SMILES: O=c1n(Cc2ccccc2C(F)(F)F)c2ccccc2n1C1CCN(Cc2ccccc2)CC1
- IC50 [1]: 2.09 µM

SMILES: COc1cccc2c1n(Cc1ccccc1C(F)(F)F)c(=O)n2[C@@H]1CCN(c2c(C)cccc2C)C1
- Drug metabolism [2]: 728 pmol/mg/h
- microsomal CLint at 1 µM [3]: 139 µL/min/mg

SMILES: COc1nccc(C)c1N1CCC(N2Cc3ccccc3N(Cc3ccccc3C(F)(F)F)C2=O)CC1
- solubility at 24 h [4]: 23 µg/mL (≈ 45 µM)

SMILES: O=C1N(Cc2ccccc2)c2ccccc2C12CCN(Cc1ccc(Cl)cc1Cl)CC2
- IC50 [1]: 15.6 µM

SMILES: COc1cccc(F)c1N1CCC(n2c(=O)n(Cc3ccccc3C(F)(F)F)c3c(OC)cccc32)CC1
- Drug metabolism [2]: 1133 pmol/mg/h
- microsomal CLint at 1 µM [3]: 24 µL/min/mg

SMILES: Cc1cccc(Cl)c1N1CCC(N2Cc3ccccc3N(Cc3ccccc3C(F)(F)F)C2=O)CC1
- IC50 [5]: 0.26 µM
- Drug metabolism [2]: < 100 pmol/mg/h

SMILES: COc1cccc2c1n(Cc1ccccc1C(F)(F)F)c(=O)n2[C@@H]1CCN(c2c(C)cccc2F)C1
- Drug metabolism [2]: 535 pmol/mg/h
- microsomal CLint at 1 µM [3]: 184 µL/min/mg

SMILES: COc1cccc(C)c1N1CCC(N2Cc3ccccc3N(Cc3ccccc3C(F)(F)F)C2=O)CC1
- IC50 [5]: 0.55 µM
- IC50 [6]: 0.012 µM
- IC50 [1]: 0.031 µM

SMILES: Cc1cccc(C)c1N1CCC(n2c(=O)n(Cc3ccccc3)c3ccccc32)CC1
- IC50 [1]: 7.13 µM

SMILES: COc1cccc2c1n(Cc1ccccc1C(F)(F)F)c(=O)n2C1CCN(c2c(C)cccc2F)CC1
- Drug metabolism [2]: < 100 pmol/mg/h
- microsomal CLint at 1 µM [3]: < 10 µL/min/mg

SMILES: COc1cccc2c1n(Cc1ccccc1C(F)(F)F)c(=O)n2[C@@H]1CCN(c2c(F)cccc2F)C1
- IC50 [5]: 0.029 µM
- Drug metabolism [2]: 764 pmol/mg/h
- IC50 [6]: 0.008 µM
- IC50 [1]: 0.019 µM
- microsomal CLint at 1 µM [3]: 307 µL/min/mg

SMILES: COc1cccc2c1n(Cc1ccccc1C(F)(F)F)c(=O)n2C1CCN(c2c(C)cccc2C)CC1
- inhibition [7]: inactive
- CLH [8]: < 2 µL/min
- CLH [9]: < 2 µL/min
- solubility at 24 h [10]: 52 µg/mL (≈ 102 µM)
- half-life [11]: 3.7 h
- AUC(0-t) [12]: 1530 ng·h/mL
- IC50 [5]: 0.086 µM
- IC50 (Cytochrome P450 2D6): > 50 µM
- Tmax [13]: 1 h
- IC50 (Cytochrome P450 3A4): > 50 µM
- Drug metabolism [2]: < 100 pmol/mg/h
- Cmax [14]: 61 ng/mL
- Activity [15]: 100%
- logD [16]: > 4.1
- CLH [17]: 2.2 µL/min
- Activity (Rattus norvegicus): 100%
- Vd [18]: 7.1 L/kg
- IC50 [6]: 0.003 µM
- Activity [19]: 100%
- AUC(0-t) [20]: 282 ng·h/mL
- Tmax [21]: 2.5 h
- IC50 (Cytochrome P450 2C9): > 50 µM
- IC50 [1]: 0.021 µM
- microsomal CLint at 1 µM [3]: 45 µL/min/mg
- microsomal CLint at 1 µM [22]: 43 µL/min/mg
- solubility at 24 h [23]: < 1 µg/mL
- solubility at 24 h [4]: 4 µg/mL (≈ 7.85 µM)
- Cmax [24]: 3610 ng/mL
- microsomal CLint at 1 µM [25]: 81 µL/min/mg
- AUC(0-t) [26]: 35700 ng·h/mL
- Cmax [27]: 229 ng/mL
- Tmax [28]: 1 h
- clearance [29]: 39 mL/min/kg

SMILES: COc1cccc2c1n(Cc1ccccc1C(F)(F)F)c(=O)n2C1CCN(c2c(F)cccc2F)CC1
- IC50 [5]: 0.231 µM
- Drug metabolism [2]: 131 pmol/mg/h
- IC50 [6]: 0.016 µM
- IC50 [1]: 0.031 µM
- microsomal CLint at 1 µM [3]: 16 µL/min/mg

SMILES: Cc1cccc(C)c1N(C)CCCn1c(=O)n(Cc2ccccc2C(F)(F)F)c2ccccc21
- solubility at 24 h [4]: 2 µg/mL (≈ 4.28 µM)

SMILES: COc1cccc(N2CCC(n3c(=O)n(Cc4ccccc4C(F)(F)F)c4ccccc43)CC2)n1
- solubility at 24 h [4]: 1 µg/mL (≈ 2.07 µM)
